{"source": "patent US20240270762A1", "about": "“PENICILLIN-BINDING PROTEIN INHIBITORS” (priority 2021, published 2024)", "key": {"[1]": {"tested_on": "P. aeruginosa CDC-0110", "test": "microbe, parasite or virus in culture", "format": "cell-based", "conditions": "Pseudomonas aeruginosa, CDC0110, read-out: Minimum inhibitory concentration, P. aeruginosa CDC-0110"}, "[2]": {"target": "T1, A. baumannii PBP1a (Acinetobacter baumannii, UniProt A0ABX6CK30)", "T1 sequence (A0ABX6CK30 1-851)": "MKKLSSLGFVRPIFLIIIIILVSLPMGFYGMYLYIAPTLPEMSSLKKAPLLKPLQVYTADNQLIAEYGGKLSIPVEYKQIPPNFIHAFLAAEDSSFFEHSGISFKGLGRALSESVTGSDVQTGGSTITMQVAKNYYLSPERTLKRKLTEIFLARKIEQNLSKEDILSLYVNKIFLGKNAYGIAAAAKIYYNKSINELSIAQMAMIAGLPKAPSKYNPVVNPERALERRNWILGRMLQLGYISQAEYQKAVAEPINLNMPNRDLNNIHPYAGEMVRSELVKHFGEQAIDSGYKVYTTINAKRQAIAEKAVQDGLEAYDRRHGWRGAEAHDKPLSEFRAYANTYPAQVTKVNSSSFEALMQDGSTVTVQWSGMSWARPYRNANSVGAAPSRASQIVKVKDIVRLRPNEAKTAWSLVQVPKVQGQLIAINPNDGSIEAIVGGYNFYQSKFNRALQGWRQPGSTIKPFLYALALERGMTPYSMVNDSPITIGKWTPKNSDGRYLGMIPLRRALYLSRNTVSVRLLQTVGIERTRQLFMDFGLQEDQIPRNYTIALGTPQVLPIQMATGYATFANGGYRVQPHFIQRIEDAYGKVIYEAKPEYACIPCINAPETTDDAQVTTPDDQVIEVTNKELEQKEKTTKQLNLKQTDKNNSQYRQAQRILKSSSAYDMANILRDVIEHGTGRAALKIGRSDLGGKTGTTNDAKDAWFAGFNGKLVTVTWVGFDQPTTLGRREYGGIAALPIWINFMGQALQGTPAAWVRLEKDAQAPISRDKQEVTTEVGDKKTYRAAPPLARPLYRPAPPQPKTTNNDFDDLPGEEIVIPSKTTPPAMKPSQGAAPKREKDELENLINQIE", "test": "Bocillin-FL competition binding via gel filtration, A. baumannii PBP1a", "conditions": "competition binding assay using Bocillin-FL via gel filtration; read-out: A. baumannii PBP1a Potency", "outline": "(§1)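 Enzyme pre-incubated with increasing inhibitor concentrations, then Bocillin-FL added for 15 min further incubation. Bocillin-FL-bound PBP separated by gel filtration and fluorescence read. EC50 from fitting fraction PBP bound vs inhibitor concentration to a Hill-type equation (ymin, ymax, n).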"}, "[3]": {"target": "A. baumannii PBP2 (Acinetobacter baumannii, UniProt D0C8Z9)", "sequence (D0C8Z9 whole entry)": "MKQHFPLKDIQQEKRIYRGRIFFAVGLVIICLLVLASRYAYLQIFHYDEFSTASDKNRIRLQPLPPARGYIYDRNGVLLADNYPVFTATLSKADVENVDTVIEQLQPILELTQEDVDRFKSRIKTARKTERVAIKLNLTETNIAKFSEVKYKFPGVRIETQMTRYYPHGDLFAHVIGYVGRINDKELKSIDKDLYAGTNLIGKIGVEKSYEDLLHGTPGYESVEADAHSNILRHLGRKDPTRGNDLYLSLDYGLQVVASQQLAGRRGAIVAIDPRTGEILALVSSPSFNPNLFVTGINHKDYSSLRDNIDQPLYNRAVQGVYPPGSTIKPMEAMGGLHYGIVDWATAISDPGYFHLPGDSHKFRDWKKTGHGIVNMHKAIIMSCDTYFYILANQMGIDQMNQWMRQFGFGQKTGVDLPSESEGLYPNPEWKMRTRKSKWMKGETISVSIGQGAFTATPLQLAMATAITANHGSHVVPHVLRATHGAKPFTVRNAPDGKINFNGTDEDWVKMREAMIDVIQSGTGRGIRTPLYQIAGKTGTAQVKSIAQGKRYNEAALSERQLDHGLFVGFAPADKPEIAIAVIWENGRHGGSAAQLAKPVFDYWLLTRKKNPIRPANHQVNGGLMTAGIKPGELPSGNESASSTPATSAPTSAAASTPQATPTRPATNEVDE", "test": "Bocillin-FL competition binding via gel filtration, A. baumannii PBP2", "outline": "as §1"}, "[4]": {"tested_on": "P. aeruginosa ATCC 27853", "test": "microbe, parasite or virus in culture", "format": "cell-based", "conditions": "Pseudomonas aeruginosa, ATCC27853, read-out: Minimum inhibitory concentration, P. aeruginosa ATCC 27853"}, "[5]": {"tested_on": "P. aeruginosa ATCC 35151", "test": "microbe, parasite or virus in culture", "format": "cell-based", "conditions": "Pseudomonas aeruginosa, ATCC35151, read-out: Minimum inhibitory concentration, P. aeruginosa ATCC 35151"}, "[6]": {"tested_on": "A. baumannii CDC-0036", "test": "microbe, parasite or virus in culture", "format": "cell-based", "conditions": "Acinetobacter baumannii"}, "[7]": {"tested_on": "B. thailandensis ATCC 700388", "test": "microbe, parasite or virus in culture", "format": "cell-based", "conditions": "Burkholderia thailandensis, ATCC700388, read-out: Minimum inhibitory concentration (MIC), B. thailandensis ATCC 700388"}, "[8]": {"tested_on": "A. baumannii CDC-0033", "test": "microbe, parasite or virus in culture", "format": "cell-based", "conditions": "Acinetobacter baumannii"}, "[9]": {"tested_on": "P. aeruginosa (ΔmexAB-oprM)", "test": "Broth microdilution MIC in iron-depleted CAMHB (IDM)", "format": "cell-based", "conditions": "Pseudomonas aeruginosa; iron-depleted CAMHB (IDM); […]; read-out: Minimum inhibitory concentration, P. aeruginosa ΔmexAB-oprM"}, "[10]": {"tested_on": "A. baumannii CDC-0045", "test": "microbe, parasite or virus in culture", "format": "cell-based", "conditions": "Acinetobacter baumannii"}, "[11]": {"tested_on": "B. humptydooensis ATCC BAA-2767", "test": "microbe, parasite or virus in culture", "format": "cell-based", "conditions": "Burkholderia humptydooensis, ATCCBAA2767, read-out: Minimum inhibitory concentration (MIC), B. humptydooensis ATCC BAA-2767"}, "[12]": {"conditions": "CDC0036, read-out: MIC, A. baumannii CDC-0036"}, "[13]": {"conditions": "CDC0033, read-out: MIC, A. baumannii CDC-0033"}, "[14]": {"conditions": "CDC0045, read-out: MIC, A. baumannii CDC-0045"}}, "note": "Like-named read-outs stand apart in the source and are kept apart here.", "data": [{"smiles": "O=C(O)c1c(F)ccc2c1OB(O)[C@@H](NC(=O)C(NC(=O)N1CCN(C3CCN(C(=O)Nc4cc(O)cc(Cl)c4)CC3)C(=O)C1=O)c1cc(F)c(O)c(O)c1Cl)C2", "note": "(stereo partly drawn) [Example 484, (3R)-3-(2-(2-chloro-5-fluoro-3,4-dihydroxyphenyl)-2-(4-(1-((3-chloro-5-hydroxyphenyl)carbamoyl)piperidin-4-yl)-2,3-dioxopiperazine-1-carboxamido)acetamido)-7-fluoro-2-hydroxy-3,4-dihydro-2H-benzo[e][1,2]oxaborinine-8-carboxylic acid]", "values": [{"measurement": "MIC", "setting": "[1]", "result": "2 to 4", "unit": "µg/mL"}, {"measurement": "EC50", "setting": "[2]", "result": "< 10", "unit": "µM"}, {"measurement": "EC50", "setting": "[3]", "result": "< 10", "unit": "µM"}, {"measurement": "MIC", "setting": "[4]", "result": "2 to 4", "unit": "µg/mL"}, {"measurement": "MIC", "setting": "[5]", "result": "< 1", "unit": "µg/mL"}, {"measurement": "MIC", "setting": "[6]; [12]", "result": "2 to 4", "unit": "µg/mL"}, {"measurement": "MIC", "setting": "[7]", "result": "32 to 64", "unit": "µg/mL"}, {"measurement": "MIC", "setting": "[8]; [13]", "result": "2 to 4", "unit": "µg/mL"}, {"measurement": "MIC", "setting": "[9]", "result": "< 1", "unit": "µg/mL"}, {"measurement": "MIC", "setting": "[10]; [14]", "result": "< 1", "unit": "µg/mL"}, {"measurement": "MIC", "setting": "[11]", "result": "> 128", "unit": "µg/mL"}]}, {"smiles": "O=C(O)c1c(F)ccc2c1OB(O)[C@@H](NC(=O)C(NC(=O)N1CCN(C3CCN(S(=O)(=O)Cc4cccc(O)c4)CC3)C(=O)C1=O)c1cc(F)c(O)c(O)c1Cl)C2", "note": "(stereo partly drawn) [Example 485, (3R)-3-(2-(2-chloro-5-fluoro-3,4-dihydroxyphenyl)-2-(4-(1-((3-hydroxybenzyl)sulfonyl)piperidin-4-yl)-2,3-dioxopiperazine-1-carboxamido)acetamido)-7-fluoro-2-hydroxy-3,4-dihydro-2H-benzo[e][1,2]oxaborinine-8-carboxylic acid]", "values": [{"measurement": "MIC", "setting": "[1]", "result": "< 1", "unit": "µg/mL"}, {"measurement": "EC50", "setting": "[2]", "result": "< 10", "unit": "µM"}, {"measurement": "EC50", "setting": "[3]", "result": "< 10", "unit": "µM"}, {"measurement": "MIC", "setting": "[4]", "result": "2 to 4", "unit": "µg/mL"}, {"measurement": "MIC", "setting": "[5]", "result": "< 1", "unit": "µg/mL"}, {"measurement": "MIC", "setting": "[6]; [12]", "result": "< 1", "unit": "µg/mL"}, {"measurement": "MIC", "setting": "[7]", "result": "2 to 4", "unit": "µg/mL"}, {"measurement": "MIC", "setting": "[8]; [13]", "result": "< 1", "unit": "µg/mL"}, {"measurement": "MIC", "setting": "[9]", "result": "< 1", "unit": "µg/mL"}, {"measurement": "MIC", "setting": "[10]; [14]", "result": "< 1", "unit": "µg/mL"}, {"measurement": "MIC", "setting": "[11]", "result": "2 to 4", "unit": "µg/mL"}]}, {"smiles": "O=C(O)c1c(F)ccc2c1OB(O)[C@@H](NC(=O)C(NC(=O)N1CCN(C3CCN(C(=O)Nc4ccc(F)c(O)c4F)CC3)C(=O)C1=O)c1cc(F)c(O)c(O)c1Cl)C2", "note": "(stereo partly drawn) [Example 486, (3R)-3-(2-(2-chloro-5-fluoro-3,4-dihydroxyphenyl)-2-(4-(1-((2,4-difluoro-3-hydroxyphenyl)carbamoyl)piperidin-4-yl)-2,3-dioxopiperazine-1-carboxamido)acetamido)-7-fluoro-2-hydroxy-3,4-dihydro-2H-benzo[e][1,2]oxaborinine-8-carboxylic acid]", "values": [{"measurement": "MIC", "setting": "[1]", "result": "< 1", "unit": "µg/mL"}, {"measurement": "EC50", "setting": "[2]", "result": "< 10", "unit": "µM"}, {"measurement": "EC50", "setting": "[3]", "result": "< 10", "unit": "µM"}, {"measurement": "MIC", "setting": "[4]", "result": "2 to 4", "unit": "µg/mL"}, {"measurement": "MIC", "setting": "[5]", "result": "< 1", "unit": "µg/mL"}, {"measurement": "MIC", "setting": "[6]; CDC0036, read-out: Minimum inhibitory concentration (MIC), A. baumannii CDC-0036", "result": "< 1", "unit": "µg/mL"}, {"measurement": "MIC", "setting": "[7]", "result": "2 to 4", "unit": "µg/mL"}, {"measurement": "MIC", "setting": "[8]; CDC0033, read-out: Minimum inhibitory concentration (MIC), A. baumannii CDC-0033", "result": "2 to 4", "unit": "µg/mL"}, {"measurement": "MIC", "setting": "[9]", "result": "< 1", "unit": "µg/mL"}, {"measurement": "MIC", "setting": "[10]; CDC0045, read-out: Minimum inhibitory concentration (MIC), A. baumannii CDC-0045", "result": "< 1", "unit": "µg/mL"}, {"measurement": "MIC", "setting": "[11]", "result": "2 to 4", "unit": "µg/mL"}]}]}
